We go through three molecules from paper PMC9136116, “The activity of the serotonergic 5-HT1A receptor is modulated by voltage and sodium levels” (The Journal of Biological Chemistry, 2022).

Experiment [1] deals with T1, 5-HT1A receptor (Homo sapiens, UniProt P08908).
T1 sequence (P08908 1-422): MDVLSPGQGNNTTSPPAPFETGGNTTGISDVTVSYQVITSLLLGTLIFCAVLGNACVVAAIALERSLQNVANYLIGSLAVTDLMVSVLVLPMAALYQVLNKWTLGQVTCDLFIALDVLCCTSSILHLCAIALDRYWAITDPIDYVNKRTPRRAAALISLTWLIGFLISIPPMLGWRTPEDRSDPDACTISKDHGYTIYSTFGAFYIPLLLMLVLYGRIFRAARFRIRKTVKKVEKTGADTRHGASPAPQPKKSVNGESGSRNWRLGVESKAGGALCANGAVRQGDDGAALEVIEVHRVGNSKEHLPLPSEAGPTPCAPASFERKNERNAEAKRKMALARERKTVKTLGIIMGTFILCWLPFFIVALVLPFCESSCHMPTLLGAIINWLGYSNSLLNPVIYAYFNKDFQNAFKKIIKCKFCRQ
The experiment can be described thus: cell-based. As to conditions: for pEC50: EC50 (activation of receptor-mediated GIRK current), wt receptor, 72 mM Na+ solution. More on the design: Emax: dose or concentration left out as unconfirmed.

Experiment [2] addresses T1, 5-HT1A receptor. As to conditions: for voltage dependence of potency: −80 mV versus +40 mV.

pEC50: −log10 of the molar value. Where two headings read alike, the source gives them in different places.

In the case of `O=C1CC2(CCCC2)CC(=O)N1CCCCN1CCN(c2ncccn2)CC1` [buspirone], the Emax in experiment [1] (read-out: maximal response relative to the maximal response produced by 5-HT) is ~42%. Further, in experiment [2], the “voltage dependence of potency” value is “not voltage dependent”.

Take `NCCc1c[nH]c2ccc(O)cc12` [5-HT, 5-hydroxytryptamine]: in experiment [2] (5 μM 5-HT, Na+-free versus 72 mM Na+), the “effect of removal of extracellular Na+ on maximal I5-HT” value is recorded as “did not affect the maximal current”. Moreover, in experiment [2] (+40 mV versus −80 mV, 72 mM Na+), the “decrease of potency by depolarization” value is listed as “more than 20 fold”.

Take `O=C1[C@@H]2[C@H]3CC[C@H](C3)[C@@H]2C(=O)N1CCCCN1CCN(c2ncccn2)CC1` [tandospirone]: the values for the pEC50 in experiment [1] (holding potential +40 mV) and in experiment [1] (holding potential −80 mV) were 6.03 and 6.71, respectively. Further, the Emax in experiment [1] (read-out: maximal response relative to the maximal response evoked by 5-HT at the same oocytes) is ~55%. Further, the “voltage dependence of potency” value in experiment [2] is listed as “voltage-dependent”.
